Patent US4853401A, “Spiro-hydantoins as aldose reductase inhibitors” (priority 1987, dated 1989)

Experiments:
[1] = Acute oral toxicity (LD50); type: in vivo; conditions: mouse, in vivo, mice, read-out: Lethal dose LD50
mice = test: Effect on behaviour (Irwin method), side effects; type: in vivo
Description: The effect on behaviour was studied by a method derived from that of S. Irwin (Gordon Res. Conf. on Medicinal Chem., 133, 1959). The substances, suspended in 1% tragacanth mucilage, were orally administered via an intra-gastric probe to groups of 5 male mice fasted for 18 hours. The maximum tested dose was 3 000 mg/kg or 1 000 mg/kg, and smaller doses were tested if an effect has been observed.
Behaviour was studied, 2, 4, 6 and 24 hours after treatment. Observation was continued if symptoms persisted at that time. Deaths were recorded during the 14 days after treatment. The results are given in Table II, in which the numbers of the compounds are the same as the numbers given in column 1 of Table I.

[2] = tested on: accumulation of sorbitol in the crystalline lenses; test: Inhibition of accumulation of sorbitol in crystalline lenses of diabetic rats; type: in vivo, Sprague Dawley rats
[3] = tested on: sorbitol accumulation in sciatic nerves; test: Effect of in vivo doses on sorbitol accumulation in sciatic nerves of diabetic rats; parameters: species or system Sprague Dawley rats
Description: 2.2 Effect of "in vivo" doses on sorbitol accumulation in sciatic nerves and crystalline lenses of diabetic rats:
Estimates were made of the effects of the products on the proportion of plasma glucose and the sorbitol content of the crystalline lenses and sciatic nerves of rats.

[4] = tested on: accumulation of sorbitol in the crystalline lenses; test: Preventive effect of single dose: sorbitol in crystalline lenses; type: in vivo, Sprague Dawley rats; conditions: for Accumulation of sorbitol in crystalline lenses, treated: 10 mg/kg oral
Description: (§1) 2.3. In vivo effects of a single dose of compound No. 2 (CP 3192 AR) on the variation in the proportion of plasma glucose and the accumulation of sorbitol in the crystalline lenses and sciatic nerves of diabetic rats.
(§2) 2.3.1. Preventive effect. CP 3192 AR was administered simultaneously with the induction of diabetes. The experiment was performed on 33 male Sprague Dawley rats weighing about 200 g.
(§3) At time 0 hours, 3 rats were sacrificed and used as non-diabetic controls. 30 fats fasted the previous day were made diabetic by an intraperitoneal injection of streptozotocin (75 mg/kg). A dose of 10 mg/kg of CP 3192 AR was simultaneously administered orally to 15 of the rats. The other 15 were given a placebo. 3 control rats and 3 rats treated with CP 3192 AR were sacrificed 2, 4, 8, 24 and 48 hours after induction of diabetes.
(§4) An estimate was made of the effects of the product on the proportion of plasma glucose and the sorbitol content of the crystalline lenses and sciatic nerves.

[5] = tested on: accumulation of sorbitol in the sciatic nerves; test: Preventive effect of single dose: sorbitol in sciatic nerves; type: in vivo, Sprague Dawley rats; conditions: 10 mg/kg oral
Description: as §1, §2, §3, §4

[6] = Preventive effect of single dose: plasma glucose; type: in vivo, Sprague Dawley rats; conditions: for Plasma glucose, treated: 10 mg/kg oral
Description: as §1, §2, §3, §4

[7] = tested on: accumulation of sorbitol in the crystalline lenses; test: Curative effect of single dose: sorbitol in crystalline lenses; type: in vivo, Sprague Dawley rats; conditions: for Accumulation of sorbitol in crystalline lenses, treated: 10 mg/kg oral
Description: (§5) 2.3.2. Curative effect: CP 3192 AR was administered 24 hours after induction of diabetes.
(§6) As before, the experiment was made on 33 male Sprague Dawley rats weighing about 200 g. The 33 rats, which had been fasted the previous day, were made diabetic by an intraperitoneal injection of streptozotocin (75 mg/kg).
(§7) 24 hours after induction of diabetes, 3 rats were sacrificed and used as diabetic controls. A dose of 10 mg/kg of CP 3192 AR was orally administered to 15 rats whereas the other 15 were given the excipient without an active product. 3 control rats and 3 rats treated with CP 3192 AR were sacrificed 2, 4, 8, 24 and 48 hours after administration of the product.
(§8) Estimates were made of the effects of the product on the proportion of plasma glucose and the sorbitol content of the crystalline lenses and sciatic nerves of rats made diabetic by streptozotocin.

[8] = Curative effect of single dose: plasma glucose; type: in vivo, Sprague Dawley rats; conditions: for Plasma glucose, treated: 10 mg/kg oral 24 h after diabetes induction
Description: as §5, §6, §7, §8

[9] = single dose 10 mg/kg, lenses and sciatic nerves

Compound: CC(=O)OCN1C(=O)N(COC(C)=O)C2(C1=O)c1ccccc1-c1ccccc12 [Compound 2, bis-(1',3'-acetoxymethyl)-spiro-/fluorene-9,4'-imidazolidine/-2',5'-dione]
- LD50 at 336 h [1]: > 3000 mg/kg
- side effect observed (mice; dose of 3000 mg/kg): no side effect was observed
- MED (minimum dose at which a side effect is observed) (mice; mice, oral): > 3 000 mg/kg
- Inhibition of accumulation of sorbitol in vivo, crystalline lenses ([2]; oral 25 mg/kg at 0, 7 and 24 h, sacrificed 27 h): 86%
- inhibition of accumulation of sorbitol in crystalline lenses and sciatic nerves (in words) ([2]; oral 25 mg/kg, lenses and sciatic nerves): particularly active
- % inhibition of sorbitol accumulation, Sciatic nerves ([3]; 0.3 mg/kg oral at 0, 7, 24 h): 42 ± 9%
- % inhibition of sorbitol accumulation, Sciatic nerves ([3]; 1 mg/kg oral at 0, 7, 24 h): 40 ± 17%
- % inhibition of sorbitol accumulation, Sciatic nerves ([3]; 3 mg/kg oral at 0, 7, 24 h): 68 ± 11%
- % inhibition of sorbitol accumulation, Sciatic nerves ([3]; 10 mg/kg oral at 0, 7, 24 h): 79 ± 9%
- ED50 ([3]; Rattus norvegicus, 27 h, sciatic nerves, diabetic rats, oral, read-out: ED50 (dose at which measured inhibition of aldose reductase activity is 50%)): 1 mg/kg
- therapeutic index MED/ED50, sciatic nerves ([3]; sciatic nerves): above 3 000
- Accumulation of sorbitol in crystalline lenses, treated ([4]; 2 h): 3 ± 0 µg
- Accumulation of sorbitol in crystalline lenses, treated ([4]; 4 h, p < 0.005): 6.3 ± 0.6 µg
- Accumulation of sorbitol in crystalline lenses, treated ([4]; 8 h, p < 0.05): 12.3 ± 4.0 µg
- Accumulation of sorbitol in crystalline lenses, treated ([4]; 24 h, p < 0.05): 52 ± 10.1 µg
- Accumulation of sorbitol in crystalline lenses, treated ([4]; 48 h): 92.7 ± 18.6 µg
- duration of effect on sorbitol accumulation [4, 9]: at least 48 hours
- onset of effect on sorbitol accumulation [4, 9]: observed as soon as soribol began to accumulate
- Accumulation of sorbitol in sciatic nerves, treated ([5]; 2 h, p < 0.05): 1.23 ± 0.2 µg
- Accumulation of sorbitol in sciatic nerves, treated ([5]; 4 h, p < 0.005): 1.8 ± 0.2 µg
- Accumulation of sorbitol in sciatic nerves, treated ([5]; 8 h, p < 0.0005): 1.8 ± 0.5 µg
- Accumulation of sorbitol in sciatic nerves, treated ([5]; 24 h, p < 0.05): 4.0 ± 1.0 µg
- Accumulation of sorbitol in sciatic nerves, treated ([5]; 48 h, p < 0.05): 4.6 ± 1.7 µg
- Plasma glucose, treated ([6]; 2 h): 436 ± 45 mg/100 ml
- Plasma glucose, treated ([6]; 4 h): 359 ± 45 mg/100 ml
- Plasma glucose, treated ([6]; 8 h): 264 ± 73 mg/100 ml
- Plasma glucose, treated ([6]; 24 h): 485 ± 35 mg/100 ml
- Plasma glucose, treated ([6]; 48 h): 447 ± 34 mg/100 ml
- effect on the proportion of plasma glucose ([6]; single oral dose 10 mg/kg): no effect
- Accumulation of sorbitol in crystalline lenses, treated ([7]; 2 h after administration): 103 ± 27 µg
- Accumulation of sorbitol in crystalline lenses, treated ([7]; 4 h after administration): 99 ± 5 µg
- Accumulation of sorbitol in crystalline lenses, treated ([7]; 8 h after administration): 125 ± 8 µg
- Accumulation of sorbitol in crystalline lenses, treated ([7]; 24 h after administration, p <0.0005): 73 ± 18 µg
- Accumulation of sorbitol in crystalline lenses, treated ([7]; 48 h after administration, p < 0.05): 142 ± 47 µg
- accumulation of sorbitol in crystalline lenses (in words) ([7]; single dose 10 mg/kg): completely inhibits
- duration of effect [7, 9]: ≥ 48 h
- Plasma glucose, treated ([8]; 2 h): 406 ± 28 mg/100 ml
- Plasma glucose, treated ([8]; 4 h): 459 ± 73 mg/100 ml
- Plasma glucose, treated ([8]; 8 h): 575 ± 14 mg/100 ml
- Plasma glucose, treated ([8]; 24 h): 478 ± 83 mg/100 ml
- Plasma glucose, treated ([8]; 48 h): 456 ± 117 mg/100 ml
- effect on the proportion of plasma glucose ([8]; single dose 10 mg/kg): no effect
